# In the Deep4Chem optical property database:
# Assay: solvent given as SMILES
smiles,measurement,setting,value
c1ccc2c(-c3cc4c(ccc5sccc54)s3)cccc2c1,absorption maximum,in ClCCl,307 nm
CCOC(=O)COc1ccc(/C=C/C2=C3c4ccccc4C(c4[nH]c(C)cc4C)=[N+]3[B-](F)(F)n3c(C)cc(C)c32)cc1,absorption maximum,in C1CCOC1,608 nm
same,absorption maximum,in CC#N,602 nm
same,absorption maximum,in CCCCCC,608 nm
same,absorption maximum,in CO,603 nm
same,absorption maximum,in Cc1ccccc1,614 nm
same,absorption maximum,in ClCCl,608 nm
CC1=[N+]2C(=Cc3c4c(cn3[B-]2(F)F)-c2nc-4c(-c3ccccc3)c3ccc([nH]3)c(-c3ccccc3)c3nc(c(-c4ccccc4)c4ccc([nH]4)c2-c2ccccc2)C=C3)C(C)C1 (stereo unspecified),absorption maximum,in ClCCl,640 nm
CC1(C)C(/C=C/C2=C(Cl)C(=C/C=C3/N(CCCCS(=O)(=O)[O-])c4ccc5ccccc5c4C3(C)C)/CCC2)=[N+](CCCCS(=O)(=O)[O-])c2ccc3ccccc3c21,absorption maximum,in CO,820 nm
COc1cccc(C2=CC3=C(c4c(C)cc(C)cc4C)c4cc(-c5cccc(OC)c5)c(-c5cccc(OC)c5)n4[B-](F)(F)[N+]3=C2c2cccc(OC)c2)c1,absorption maximum,in C1CCCCC1,596 nm
same,absorption maximum,in C1CCOC1,592 nm
same,absorption maximum,in CC#N,581 nm
same,absorption maximum,in Cc1ccccc1,596 nm
same,absorption maximum,in ClCCl,588 nm
CCN(CC)c1ccc(/N=N/c2nc3ccc([N+](=O)[O-])cc3s2)cc1,absorption maximum,in CC#N,546 nm
same,absorption maximum,in ClCCl,549 nm
CC(C)[Si](C#Cc1c2cc3ccccc3cc2c(C#C[Si](C(C)C)(C(C)C)C(C)C)c2cc3ccccc3cc12)(C(C)C)C(C)C,absorption maximum,in ClCCl,643 nm
Cc1ccc(C2=Nc3cccc4[n+]3[B-](c3ccccc3)(N2)NC(c2ccc(C)cc2)=N4)cc1,absorption maximum,in ClCCl,435 nm
CCCCNc1nn(-c2ccc(OC)cc2)nc1C#N,absorption maximum,in CC#N,328 nm
c1ccc(-c2ncc3ccccn23)cc1,absorption maximum,in ClC(Cl)Cl,317 nm
c1ccc(-c2nc(-c3ccc(-c4ccc(-n5c6ccccc6c6ccccc65)cc4)cn3)oc2-c2ccccc2)cc1,absorption maximum,in C1CCOC1,333 nm
same,absorption maximum,in C1COCCO1,326 nm
same,absorption maximum,in CC#N,330 nm
same,absorption maximum,in CC(C)=O,333 nm
same,absorption maximum,in CC(C)OC(C)C,334 nm
same,absorption maximum,in CCCCCC,336 nm
same,absorption maximum,in CCCCOCCCC,336 nm
same,absorption maximum,in CCN(CC)CC,333 nm
same,absorption maximum,in CCOC(C)=O,332 nm
same,absorption maximum,in CCOCC,333 nm
same,absorption maximum,in Cc1ccccc1,338 nm
same,absorption maximum,in c1ccccc1,338 nm
c1cc2ccc3cccc4c(-c5cc(-c6nccs6)nc(-c6nccs6)c5)cc(c1)c2c34,absorption maximum,in CC#N,367 nm
same,absorption maximum,in CCCCCC,344 nm
same,absorption maximum,in CO,365 nm
same,absorption maximum,in ClC(Cl)Cl,351 nm
COc1ccc(-c2nc(/C(C#N)=C/c3ccc(Cl)cc3)sc2-c2ccc(OC)cc2)cc1,absorption maximum,in CC#N,394 nm
Clc1cc(Cl)c([C](c2c(Cl)cc(Cl)cc2Cl)c2c(Cl)cc(-n3c4ccccc4c4ccccc43)cc2Cl)c(Cl)c1,absorption maximum,in ClC(Cl)Cl,598 nm
CC(C)c1cc(N(C)C)c(C#N)c2c1-c1cccc3cccc-2c13,absorption maximum,in O,430 nm
Cn1cccc1-c1ccc(C#N)cc1,absorption maximum,in C1CCOC1,326 nm
same,absorption maximum,in CC#N,322 nm
same,absorption maximum,in CCCCCC,317 nm
same,absorption maximum,in CCCCOCCCC,321 nm
same,absorption maximum,in CCOCC,321 nm
O=Cc1ccc(N(c2ccc(C=O)cc2)c2ccc(-c3ccc4c(c3)C(=O)c3ccccc3C4=O)cc2)cc1,absorption maximum,in C1CCOC1,374 nm
same,absorption maximum,in CCCCCC,368 nm
same,absorption maximum,in CCOC(C)=O,371 nm
same,absorption maximum,in CCOCC,369 nm
same,absorption maximum,in Cc1ccccc1,376 nm
same,absorption maximum,in ClC(Cl)(Cl)Cl,376 nm
same,absorption maximum,in ClCCl,379 nm
CC(C)(C)NC(=O)c1cccc2ccc3c4cc(Cl)ccc4c4ccc(Cl)cc4c3c12,absorption maximum,in ClCCl,335 nm
c1ccc(N(c2ccccc2)c2ccc(-c3ccc4c(c3)C3(c5ccccc5Sc5ccccc53)c3cc(-c5ccc(N(c6ccccc6)c6ccccc6)cc5)ccc3-4)cc2)cc1,absorption maximum,in ClCCl,375 nm
CCN1CCN(c2ccc(/N=N/c3cc([N+](=O)[O-])cc([N+](=O)[O-])c3)cc2)CC1,absorption maximum,in CCOC(C)=O,454 nm
C(#Cc1cc(C#Cc2cccs2)c(C#Cc2cccs2)c(C#Cc2cccs2)c1C#Cc1cccs1)c1cccs1,absorption maximum,in ClCCl,372 nm
CCCC1=Cc2nc1ccc1[nH]c(c3nc(ccc4[nH]c2cc4CCC)C(CCC)=C3)c(CN(C)C)c1CCC,absorption maximum,in Cc1ccccc1,643 nm
CN(C)c1ccc(-c2nc(C#N)c(C#N)n2C)cc1,absorption maximum,in C1CCCCC1,323 nm
same,absorption maximum,in CC#N,313 nm
same,absorption maximum,in CO,309 nm
same,absorption maximum,in ClC(Cl)Cl,326 nm
Fc1ccccc1N1c2c(sc3ccccc23)Sc2sc3ccccc3c21,absorption maximum,in ClCCl,353 nm
